Key:
[1] = system: wine (Merlot) and table (Princess) grape varieties; experiment: Solar radiation damage in Chilean vineyards; type: in vivo; conditions: 3, 6 or 9 mL/L in 100 L of water; at harvest
From the text: FIG. 13 denotes number of sun-damaged bunches of Merlot grape. Bars represent standard error for total number of damaged bunches. Letters are the same for each category of damage and represent significant differences according to a Tukey test for separation of means with α=0.05.
FIG. 14 denotes number of sun-damaged bunches of Princesa table grape. Bars represent standard error for number of damaged bunches. Letters represent significant differences in number of damaged bunches according to a Tukey test for separation of means with α=0.05.
To evaluate for protection from excess or harmful solar radiation, stearyl alcohol was applied by Duarte and Associates in established Chilean vineyards planted with wine (Merlot) and table (Princess) grape varieties. Plants were treated in 2014 with 3, 6 or 9 mL/L in 100 L of water when berries reached 11 mm in diameter and at two week intervals over the subsequent six weeks. Five contiguous vines were sprayed per treatment; treatments were replicated 3 times and arranged in a random complete block design. At harvest, bunches were counted per plant, yields assessed, sugar content measured and solar radiation damage rated.

almond = experiment: Almond orchard field trial, yield
tomato plants = experiment: Controlled lab bioassay of transpiration under moderate heat stress; type: in vivo
Procedure: FIG. 11 denotes mean transpiration rates of tomato plants treated with stearyl alcohol at 72 hours after application. Bars represent standard errors. A controlled lab bioassay was run to evaluate the ability of stearyl alcohol to decrease transpiration of tomato plants under moderate heat stress. stearyl alcohol was applied at a 6 mL/L concentration in water to five tomato plants at the 6-8 leaf stage growing in 8.9 cm square pots, using a research track sprayer. Sombrero, a commercially available calcium carbonate plant sunscreen product, was applied as a positive control and deionized water as a negative control. The application rate was equivalent to 150 liters of diluted product per acre. After sealing pots with plastic bags to prevent water loss through evaporation from the soil surface and measuring total pot and plant weight, the plants were placed in randomized complete blocks in a growth chamber set to 26° C. with 50% relative humidity, x 3000 μW/cm2 illumination for 14 hours per day. Sealed pots and plants were again weighed at 24, 48 and 72 hours after application. Differences in weight were attributed to water loss through transpiration. Plant mass was then plotted against time, and the slope of the linear regression was taken to be the rate of water loss in Average surface area of the leaves (cm2) was calculated using a digital leaf area scanner. Mean transpiration rate was then calculated as: Rate=Water Loss Rate (μg/sec)/Total Leaf Area (cm2).

soybean leaves = experiment: Leaf temperature and gas exchange of attached soybean leaves in a field; type: in vivo; conditions: 1% v/v DI water solution on upper leaf surface; SE±0.31; P-value<0.02, paired t-test
From the text: FIG. 9 denotes a comparison of the temperature depression caused by stearyl alcohol application to leaves. Points represent temperatures measured at 9 time intervals on four pairs of leaves. FIG. 10 denotes a comparison of photosynthetic capacity of treated leaves, control leaves and leaves prior to stearyl alcohol application. Photosynthetic capacity variation is interpreted as a treatment having higher/lower photosynthesis values than the control for the same stomatal conductance To test the hypothesis that stearyl alcohol reduces internal leaf temperatures while not adversely affecting photosynthesis, stearyl alcohol was applied to eight attached soybean leaves selected from plants growing in a field. The leaves were spaced in blocks so that two leaves could be compared to each other as control/treatment pairs. The leaves were placed in fishing line, wood and metal holders that restrained the leaves in an exposed and horizontal orientation (to prevent leaf orientation changes affecting the leaf energy balance and temperature). Leaf temperature was measured with an IR thermometer three times before and six times after application of a 1% v/v DI water solution of stearyl alcohol to the upper leaf surface, applied using a household spray bottle. Full coverage of the leaf surface was achieved and excess water shaken off. Leaves were dry within half an hour. […]

[2] = Percent light transmittance by spectrophotometer; type: physicochemical; conditions: depending on the concentration of material applied
Procedure: FIG. 8 denotes percent light transmission (% T) of wavelengths between 200 and 750 nm. UV-B radiation occurs at 280-315 nm (dashed green lines), while photosynthetically active radiation occurs between 400-700 nm (solid green lines). The rows of symbols correspond to 12 mL/L concentrations of formulated stearyl alcohol (triangles) and two alternate formulations (squares, diamonds). Water (circles) results in 100% light transmittance. To test the hypothesis that stearyl alcohol reduces transmission of light radiation, particularly within the UV-B spectrum, percent (%) transmittance were measured using a spectrophotometer. stearyl alcohol was diluted to 1/100th of the field application rate (6 mL/L active ingredient) for both visible and non-visible UV light spectra. Visible light spectral analysis was conducted using a 96 well plate while UV transparent cuvettes and 96 well plates were utilized to analyze the percent light transmittance at the UV spectrum. For all spectrophotometer light transmittance screenings, both a water reference and plate blank were used to calibrate the ratio of light energy transmitted through the formulation samples to the energy transmitted through the reference blank. Treatments were replicated three times.

reductions of light in the photosynthetically active radiation spectrum ([2]; 400-700 nm): 10-15%
reductions of transmitted UV-B radiation ([2]; UV-B 280-315 nm): 20-50%
SMILES: CCCCCCCCCCCCCCCCCCO [stearyl alcohol]
damaged bunches, table grape (Princess) [1]: fewer damaged bunches
damaged bunches, wine grape (Merlot) [1]: fewer damaged bunches
crop safety in pre-harvest field assessments (almond; almond orchard, six assessment dates): confirmed the crop safety
almond yields (almond; stearyl alcohol 6 ml/L three applications, Surround 50 lbs per acre, untreated 2.8 tons/A): 3.2 tons/A
mean transpiration rate (tomato plants; 6 mL/L stearyl alcohol, 26° C., 50% relative humidity, up to 72 hours after application, untreated control 6.68): 5.33 μg/cm2/sec
average reductions in leaf temperature (tomato plants; tomato plants, growth chamber 26° C.): 1.50 (±0.35) ° C.
reductions in transpiration (tomato plants; vs untreated control): about 20%
apparent depression in leaf temperatures after application (soybean leaves): 1.5 degree C.

Reference: patent publication US11707062B2, “Formulation of stearyl alcohol” (PRO FARM GROUP, INC., priority 2017, dated 2023)
